Laboratory results as given in patent US20110195924A1, “Methods of Inhibiting the Interaction Between S100P and the Receptor for Advanced Glycation End-Products” (priority 2008, published 2011).
Several values for one entry are separate records, joined by “and”; a condition that tells them apart may be missing. Equal values may be shown once.

Experiments:
BxPC-3 cells [1] = test: BxPC-3 cell proliferation (MTS); type: cell-based; conditions: 48 hours; for basal cell proliferation, mean: 0 μM mean 1.2
Protocol: BxPC-3 cells were plated at 1.0×10^3 cells/well and treated with 0 μM, 1 μM, 10 μM, and 100 μM of cromolyn, and cell proliferation was analyzed after 48 hours. Means and 95% confidence intervals of three independent experiments performed in triplicate are shown. *, P=0.002; t, P<0.001 versus control. Growth of Panc-1 and BxPC3 pancreatic adenocarcinoma cells was analyzed using MTS reagent (Promega, Madison, Wis.) according to the manufacturer's directions. Purified S100P (100 nM final concentration) with or without cromolyn (100 μM final concentration) was added to Panc-1 cells. Only cromolyn (0-100 μM) was added to BxPC-3 cells, which express endogenous S100P. For both cell models, 1.0×10^3 cells/well were plated in 96-well culture dishes. Cells were treated with S100P, PDGF, or cromolyn, or a combination, followed immediately by treatment with either S100P or PDGF. MTS (20 μL per well) was added to cells at various times, and the mixture was incubated for 1 hour at 37° C. Samples were then read at 490 nm (as O.D. units) on a uQuant-Microplate Spectrophotometer (Bio-Tek Services Inc., Richmond, Va.). The assay was performed three times in triplicate.

SW480 cells = test: SW480 colon cancer cell invasion (matrigel, transwell); type: cell-based; conditions: cromolyn 10 μM and 100 μM, 24 hours
Protocol: SW480 cells were plated on top of a layer of matrigel in a Boyden type chamber (transwell). Media containing 5% FBS was placed in the lower well and the cells were allowed to invade the matrigel layer for 24 hours in the presence of different concentrations of cromolyn.

BxPC-3 cells [2] = test: BxPC-3 cell viability, alone or with gemcitabine; type: cell-based; conditions: 72 hours
Protocol: BxPC-3 cells were plated at 1.0×10^3 cells/well and treated with 0 μM, 1 μM, 10 μM, and 100 μM of cromolyn or C5 alone or in combination with gemcitabine 1 μM and cell viability was analyzed after 72 hours. Two-tailed two-sample (unpaired) Student's t-tests were used to determine P values. […] BxPC-3 cells were plated at 1.0×10^3 cells/well and treated with either 100 μM of cromolyn or 1 μM C5 alone or in combination with gemcitabine (1 μM) and cell viability was analyzed after 72 hours.

BxPC-3 cells [3] = test: BxPC-3 apoptosis by flow cytometry (PI staining); type: cell-based; conditions: 48 hours
Protocol: BxPC-3 cells were treated with cromolyn (10 μM) with (+) or without (−) gemcitabine (10 μM), and apoptosis was analyzed after 48 hours by flow cytometry. *, P<0.001 versus control, #, P=0.001 versus gemcitabine. Means and 95% confidence intervals of three independent experiments performed in triplicate are shown. Two-tailed two-sample (unpaired) Student's t-tests were used to determine P values. Standard propidium iodide (PI) staining by the hypotonic lysis method was used for apoptosis studies. Apoptosis was induced in 1.0×10^6 BxPC-3 cells by treatment with gemcitabine (10 μM), with or without cromolyn. After 48 hours the cells were detached from culture dishes by incubation in 0.05% trypsin-EDTA, washed once with cold PBS, and then incubated for 30 minutes in 500 μL of hypotonic solution (0.1% sodium citrate, 0.1% Triton X-100, 100 μg/mL RNAse, and 50 μg/mL PI), and analyzed by flow cytometry (EPICS XL, Beckman Coulter Inc, Fullerton, Calif.). Cells undergoing apoptosis that had lost part of their DNA were identified as the population of cells with sub-G1 DNA content. These assays were performed three times.

Panc-1 tumors = test: Panc-1 orthotopic tumor growth and metastasis in scid mice; type: in vivo
Protocol: FIGS. 6A-6F show the effect of cromolyn on Panc-1 tumor growth and metastasis in vivo. Panc-1 cells stably expressing the firefly luciferase gene were injected orthotopically into 4-week-old male CB 17 scid mice. […] Mice were divided into four groups of five mice each with an equivalent mean tumor size between groups. […] One group was treated with water (control), one group received gemcitabine bi-weekly (125 mg per kg body weight bi-weekly by intraperitoneal injection), one group was administered cromolyn daily (5 mg per kg body weight daily by intraperitoneal injection), and the final group was given the combination of cromolyn and gemcitabine. All groups were treated for six weeks. Bioluminescent imaging was done weekly to assess tumor growth. […] Means and 95% confidence intervals from two independent experiments are shown (n=20). Two-tailed two-sample (unpaired) Student's t-tests were used to determine P values. The anti-tumorigenic capability of the drug cromolyn was assessed in 4-week-old male CB 17 scid mice (n=20) carrying orthopic tumors of BxPC-3, MPanc96, and Panc-1 cells stably expressing a Lenti-luc reporter. All mouse experiments were reviewed and approved by the Institutional Animal Care and Use Committee of UT MD Anderson Cancer Center. All mice were maintained in a sterile environment. Cages, bedding, food, and water were all autoclaved. All mice were maintained on a daily 12-hour light/12-hour dark cycle, according to the institutional animal welfare guidelines. BxPC-3, MPanc96, and Pane-1 cells carrying the Lenti-luc reporter gene were grown to 80% confluence, harvested by incubation with trypsin-EDTA, washed twice in PBS, and resuspended to a final concentration of 4.0×10^6 cells/mL. Each mouse (n=20 mice per cell line) was injected (into the pancreas) with cell suspensions (50 μL). Bioluminescent imaging to determine tumor volume was performed 1 week after injection because the tumors became established within this amount of time. This initial tumor volume was used to divide the mice into four groups of five mice each, such that the mean tumor size was equal between groups (FIGS. 4A, 5A, and 6A). To allow enough time to observe differences among treatment groups, the mice were followed for the next 5 weeks. One group of mice was then treated biweekly with a sub-maximal concentration of gemcitabine (125 mg per kg body weight by i.p. injection). A second group was treated with a daily injection of cromolyn (5 mg per kg body weight by i.p. injection). A third group was treated with both bi-weekly gemcitabine and daily cromolyn. The control group was treated daily with vehicle. Treatments were continued for 5 weeks, and the effects on the tumor burden and metastasis were analyzed by weekly bioluminescence imaging (FIGS. 4B, 5B, and 6B). At the end of the experiment the mice were anesthetized with 1.5% isofluorane/air mixture and killed by cervical dislocation. Bioluminescence imaging was conducted using a cryogenically cooled IVIS 100 imaging system coupled to a data acquisition computer running Living Image software (Xenogen Corp., Alameda, Calif.). Before imaging, mice were placed in an acrylic chamber, anesthetized with 1.5% isofluorane/air mixture, and injected i.p. with 15 mg/mL of luciferin potassium salt in PBS at a dose of 150 mg per kg body weight. A digital grey scale image of each mouse was acquired, followed by acquisition and overlay of a pseudocolor image representing the spatial distribution of detected photons emerging from active luciferase within the mouse. Tumor volume was quantified as the sum of all detected photons within the region of the tumor per second. At the end of experiment, the mice were killed, and tumors were surgically removed and weighed. After the primary tumors were removed, cancer cell dissemination and metastasis was visualized using IVIS imaging, and metastatic colonies were counted. […]

## O=C(O)c1cc(=O)c2c(OCC(O)COc3cccc4oc(C(=O)O)cc(=O)c34)cccc2o1 [cromolyn, disodium 1,3-bis[(2′-carboxylatochromon-5′-yl)oxy]-2-hydroxypropane]
BxPC-3 cells [1]; cromolyn 10 μM
  basal cell proliferation, difference versus 0 μM: 0.5 MTS units
  basal cell proliferation, mean: 0.7 MTS units
BxPC-3 cells [1]; cromolyn 100 μM
  basal cell proliferation, difference versus 0 μM: 0.6 MTS units
  basal cell proliferation, mean: 0.6 MTS units
SW480 cells
  invasiveness of SW480 cells: reduced the invasiveness
BxPC-3 cells [2]; BxPC-3, gemcitabine 1 μM, FIG. 10
  concentration giving the same level of cell reduction in combination with gemcitabine: 100 µM
BxPC-3 cells [2]; alone and in conjunction with gemcitabine 1 μM
  BxPC-3 cell viability: inhibit
BxPC-3 cells [3]; cromolyn 10 μM
  cell apoptosis, cromolyn alone: no statistically significant effect
Panc-1 tumors; Panc-1 model
  liver or lung metastasis: neither cromolyn nor gemcitabine nor the combination reduced
Panc-1 tumors; Panc-1 model (no S100P), cromolyn 5 mg/kg daily i.p.
  tumor development: did not reduce
Panc-1 tumors; Panc-1 model, up to 6 weeks
  effect on body weight (in words): no effect

## Nc1ccn([C@@H]2O[C@H](CO)[C@@H](O)C2(F)F)c(=O)n1 [gemcitabine]
BxPC-3 cells [3]; gemcitabine 10 μM
  apoptotic cells, difference versus control: 27.3%
BxPC-3 cells [3]; gemcitabine 10 μM, control 3.7%
  apoptotic cells, mean: 31.0% and 30.8%
Panc-1 tumors; Panc-1 model
  body weight, difference versus control: 4.8 g
  liver or lung metastasis: neither cromolyn nor gemcitabine nor the combination reduced
Panc-1 tumors; Panc-1 model, control 32.0 g
  body weight at the end of the experiment, mean: 27.2 g
